Test results reported in BindingDB's records for doi:10.7270/Q25M67W6 (n/a, 1992).

Experiments:
Prothrombin = Prothrombin (Homo sapiens, UniProt P00734); test: Rate constant of deacylation for thrombin
[1] = molecular target: Urokinase-type plasminogen activator (Homo sapiens, UniProt P00749); test: Rate constant of deacylation for Urokinase-type plasminogen activator
Serine protease 1 = Serine protease 1 (Homo sapiens, UniProt P07477); test: Rate constant of deacylation for trypsin
Sequence of Serine protease 1 (P07477 whole entry): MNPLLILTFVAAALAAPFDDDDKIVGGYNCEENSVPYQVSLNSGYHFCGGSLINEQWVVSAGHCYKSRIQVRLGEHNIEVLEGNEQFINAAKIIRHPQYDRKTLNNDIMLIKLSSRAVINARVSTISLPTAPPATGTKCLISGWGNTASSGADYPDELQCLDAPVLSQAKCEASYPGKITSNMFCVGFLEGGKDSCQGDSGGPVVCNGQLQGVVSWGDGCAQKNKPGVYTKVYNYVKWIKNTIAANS

| Compound | koff (Prothrombin) [s⁻¹] | koff [1] [s⁻¹] | koff (Serine protease 1) [s⁻¹] |
| --- | --- | --- | --- |
| C=C1CCC(c2ccc(CNC(=N)N)cc2)C(=O)O1 (stereo not drawn) | 0.0001 | 0.000733 |  |
| C=C1CC(c2ccc(NC(=N)N)cc2)CC(=C)O1 |  | 0.00015 | 3.3e-05 |
| C=C1O/C(=C/I)C[C@H](c2ccc(NC(=N)N)cc2)[C@H]1NC(=O)c1ccccc1 |  | 1.3e-05 | 8.3e-05 |
| C=C1CC(c2ccc(NC(=N)N)cc2)C/C(=C\I)O1 (stereo not drawn) |  |  | 0.000333 |
| N=C(N)NCc1ccc(C2CC/C(=C\I)OC2=O)cc1 (stereo not drawn) | 0.000217 |  |  |
